# Patent US7678787B2, “Pyrrolobenzodiazepine pyridine carboxamides and derivatives as follicle-stimulating hormone receptor antagonists” (Wyeth, priority 2005, dated 2010)
# Experiments:
# hFSH-R = molecular target: T1, hFSH-R (Homo sapiens, UniProt P23945); test: cAMP accumulation (RIA) in CHO-3D2 cells (hFSH-R), hFSH-induced; type: cell-based; conditions: inhibition of cAMP accumulation induced by hFSH at EC20, CHO-3D2 cells
# T1 construct: expressed in transfected cells; host or cells: CHO-3D2 cells (CHO-K1 parental line)
# T1 sequence (P23945 18-695): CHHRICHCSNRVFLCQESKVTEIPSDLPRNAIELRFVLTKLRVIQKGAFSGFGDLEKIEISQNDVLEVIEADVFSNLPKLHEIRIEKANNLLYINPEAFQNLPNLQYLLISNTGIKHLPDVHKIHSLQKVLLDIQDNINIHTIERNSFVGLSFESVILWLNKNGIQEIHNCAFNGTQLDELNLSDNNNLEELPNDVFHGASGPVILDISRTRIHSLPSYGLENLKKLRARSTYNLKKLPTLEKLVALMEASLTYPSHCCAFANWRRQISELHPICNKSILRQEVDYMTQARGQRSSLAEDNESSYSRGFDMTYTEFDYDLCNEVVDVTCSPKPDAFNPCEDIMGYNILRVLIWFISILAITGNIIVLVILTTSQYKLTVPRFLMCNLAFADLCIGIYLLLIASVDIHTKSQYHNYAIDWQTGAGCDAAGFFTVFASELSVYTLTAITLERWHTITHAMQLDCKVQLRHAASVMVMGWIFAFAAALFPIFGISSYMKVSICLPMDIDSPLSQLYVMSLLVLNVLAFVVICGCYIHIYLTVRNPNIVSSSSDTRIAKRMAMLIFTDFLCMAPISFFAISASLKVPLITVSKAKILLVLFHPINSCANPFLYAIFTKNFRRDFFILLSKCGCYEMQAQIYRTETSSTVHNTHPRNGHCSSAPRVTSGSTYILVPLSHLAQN
# Description: IN VITRO BIO-ASSAY OF AGONISTS AND ANTAGONISTS TO THE FSH RECEPTOR. SELECTIVITY AND DEPENDENCY OF AGONISTS AND ANTAGONISTS TO THE FSH RECEPTOR
# Compound Vehicle: Stock compounds were solubilized in 100% DMSO (Sigma-Aldrich Chemical Co., St. Louis, Mo.) at a concentration of 30 mM. The compounds subsequently were diluted in sterile assay medium consisting of Opti-MEM® I (Invitrogen/Life Technologies, Carlsbad, Calif.) with 0.1% (w/v) BSA (Sigma-Aldrich) prior to use in the bio-assay. The final concentration of DMSO in the assay was 0.1%.
# Plated cells are then incubated at 37° C. in a humidified 5% CO2/95% air atmosphere.
# Assay: On the day of the assay, cells were washed three times with 100 μl/well of assay medium consisting of Opti-MEM® I (Invitrogen/Life Technologies) with 0.1% (w/v) BSA (Sigma-Aldrich). Medium was removed and 100 μl of assay medium was added to each well. Plates were incubated for an additional 30 minutes at 37° C. […] Reactions were terminated by the addition of 50 μl of 0.2N hydrochloric acid to each well and cAMP-accumulation was measured by radioimmunoassay (RIA) using a commercially available kit (Amersham Biosciences, Piscataway, N.J.).
# All test compounds were evaluated in a dose-response paradigm ranging from 0.01 to 30 μM. Controls and test compounds were evaluated in quadruplicate in a 96-well format.
# Along with the test compounds, FSH was run also as a postive control in the agonist mode using concentrations ranging from 0.1-1000 ng/ml.
# Data were analyzed by one-way analysis of variance and significant differences between treatments and control determined by Least Significant Difference test.
# Test compounds were compared to the effect of purified human FSH.
# human FSH receptor = molecular target: T2, human FSH receptor (Homo sapiens, UniProt P23945); test: FSH receptor-dependent CRE-luciferase reporter gene assay (CHO FSH-R 6CRE-Luc cells); type: cell-based; conditions: dose-response format in presence of EC50 of purified human FSH; * n=3, ** n=2 averages
# T2 construct: host or cells: CHO-K1 (CHO FSH-R 6CRE-Luc, 1D7 cells)
# T2 sequence (P23945 18-695): T1 sequence (P23945 18-695)
# Source text: FOLLICLE-STIMULATING HORMONE RECEPTOR-DEPENDENT CRE-LUCIFERASE REPORTER GENE ASSAY FOR THE IDENTIFICATION OF FOLLICLE-STIMULATING HORMONE (FSH) ANTAGONISTS
# A Chinese hamster ovarian cell line that stably produces the human FSH receptor and a luciferase reporter gene regulated by cAMP response elements was used to identify and determine the relative potencies of human FSH receptor antagonists. See for example, Kelton, C. A., et al. Mol. Cell. Endocrinol. 89:141-151 (1992), Tilly, J. L., et al. Endocrinology 131:799-806(1992), and George, S. E., et al. J. Biomol. Screening 2:235-240 (1997).
# Compound Vehicle: Stock compounds were solubilized in an appropriate vehicle, e.g., phosphate buffered saline (PBS) or dimethyl sulfoxide (DMSO), at 30 mM. The compounds subsequently were diluted in DMSO to working dilutions of 1 and 20 or 30 mM for 2-dose testing format and 1 μM-10 mM for dose-response format. The DMSO dilutions were diluted 500-fold in sterile growth medium [D-MEM/F-12 (GIBCO/BRL; Grand Island, N.Y.) containing 15 mM HEPES, 2 mM l-glutamine, pyridoxine hydrochloride, phenol red and 5% FETALCLONE® II (HyClone Laboratories, Inc; Logan, Utah), 0.2% DMSO, 100 units penicillin G/ml, and 100 μg streptomycin sulfate/ml (GIBCO/BRL)]. The concentration of the vehicle in each of the compound dilutions was the same.
# Positive Controls: Purified human FSH (>98%) was purchased from Cortex Biochem, Inc. (San Leandro, Calif.) and 3-[(2S*,5R*)-5-{[2-(1H-Indol-3-yl)-ethylcarbamoyl]-methyl}-4-oxo-2-(5-phenylethynyl-thiophen-2-yl)-thiazolidin-3-yl]-benzamide (an FSH-R thiazolidinone antagonist) was prepared by processes described by R. A. Scheuerman et al. in U.S. Pat. No. 6,426,357 (Affymax).
# The CHO FSH-R 6CRE-Luc cells (1D7 cells) were obtained from Affymax (Palo Alto, Calif.). These Chinese hamster ovary cells (CHO-K1) were engineered genetically to stably express the recombinant human FSH receptor gene and a luciferase reporter gene under the regulation of 6 copies of a cAMP response element. The cells were plated one day prior to treatment into 96-well white opaque plates at a density of 50,000 cells/100 μl/well in growth medium. On the day of treatment, the growth medium was removed from the wells by aspiration and 50 μl of fresh growth medium was added to each well. The cells were incubated at 37° C. in a humidified incubator with 5% CO2/95% air.
# The treated cells were incubated for 4 hours at 37° C. in a humidified incubator with 5% CO2/95% air. At the end of the incubation period, luciferase activity was measured by chemiluminescence using a commercially available kit (LucScreen, Tropix, Inc., Bedford, Mass.) according to the manufacturer's specifications, except that Buffer 1 and Buffer 2 were mixed together in equal proportion prior to the addition of 100 μl of the combined reagents to each well. Chemiluminescence was detected using a luminometer (EG & G Berthold Microlumat LB 96 P, Wallac, Gaithersburg, Md.) with chemiluminescence measured for 1 sec/well. Background luminescence was measured for each well prior to the addition of the LucScreen reagent.
# In the 96-well 2-dose format, each compound was tested in duplicate at each dose. […] One plate was used to test a maximum of 22 compounds.
# The EC50 of purified human FSH alone was tested in triplicate with each test compound. The doses chosen to test each compound were extrapolated from the initial 2-dose screening process. Along with the test compounds, purified human FSH also was tested in a dose response (0.03, 0.1, 0.3, 1, 3, 10, and 30 ng/ml) for a positive control and quality control. One plate was used for 3 test compounds and the FSH positive control.
# Luciferase activity is expressed as relative light units/sec/well. Luciferase activity in antagonist was compared to the appropriate negative and positive controls. For 2-dose testing, results are reported as luciferase activity and are expressed as percent inhibition of the response obtained from the EC50 of FSH.
Compound,IC50 (hFSH-R) [µM],IC50 (human FSH receptor) [µM],melting point
"CC(O)c1ccccc1-c1ccc(C(=O)N2Cc3ccc(C(=O)NCc4cccnc4)n3Cc3ccccc32)cc1 (single isomer, unassigned; (+)) [Example 54]",0.15,0.317,–
"CC(O)c1ccccc1-c1ccc(C(=O)N2Cc3ccc(C(=O)NCc4cccnc4)n3Cc3ccccc32)cc1 (single isomer, unassigned; (-)) [Example 53]",0.12,0.159,–
Cc1cc(C(=O)N2Cc3ccc(C(=O)NCc4cccnc4)n3Cc3ccccc32)ccc1-c1ccccc1C(F)(F)F [Example 5],1.5,13.8,–
"COc1ccccc1-c1ccc(C(=O)N2Cc3ccc(C(=O)NCc4cccnc4Oc4ccccc4)n3Cc3ccccc32)cc1 [Example 7, 10-[(2′-METHOXY-1,1′-BIPHENYL-4-YL)CARBONYL]-N-[(2-PHENOXYPYRIDIN-3-YL)METHYL]-10,11-DIHYDRO-5H-PYRROLO[2,1-C][1,4]BENZODIAZEPINE-3-CARBOXAMIDE]",0.7,5.4,–
O=C(NCc1cccnc1)c1ccc2n1Cc1ccccc1N(C(=O)c1ccc(-c3ccccc3)cc1)C2 [Example 13],0.7,2.8,–
"CSc1ccccc1-c1ccc(C(=O)N2Cc3ccc(C(=O)NCc4cccnc4)n3Cc3ccccc32)cc1 [Example 14, 10-{[2′-(METHYLTHIO)-1,1′-BIPHENYL-4-YL]CARBONYL}-N-(PYRIDIN-3-YLMETHYL)-10,11-DIHYDRO-5H-PYRROLO[2,1-C][1,4]BENZODIAZEPINE-3-CARBOXAMIDE 0.67 HYDRATE]",0.77,1.61,–
Cc1cc(C(=O)N2Cc3ccc(C(=O)NCc4cccnc4)n3Cc3ccccc32)ccc1-c1ccccc1F [Example 20],1.3,3.7,–
Cc1cc(C(=O)N2Cc3ccc(C(=O)NCc4cccnc4)n3Cc3ccccc32)ccc1-c1ccccc1Cl [Example 21],1,2.9,–
Cc1cc(C(=O)N2Cc3ccc(C(=O)NCc4cccnc4)n3Cc3ccccc32)ccc1-c1ccc(Cl)cc1 [Example 24],1.6,10.7,–
CC(C)(C)OC(=O)c1ccccc1-c1ccc(C(=O)N2Cc3ccc(C(=O)NCc4cccnc4)n3Cc3ccccc32)cc1 [Example 64],–,> 30,163 to 165 °C

# The remaining lines, values ahead:
IC50 (hFSH-R) [µM],IC50 (human FSH receptor) [µM],melting point,Compound
–,> 30,189 to 191 °C,"O=C(O)c1ccccc1-c1ccc(C(=O)N2Cc3ccc(C(=O)NCc4cccnc4)n3Cc3ccccc32)cc1 [Example 65, 4′-{[3-{[(PYRIDIN-3-YLMETHYL)AMINO]CARBONYL}-5H-PYRROLO[2,1-C][1,4]BENZODIAZEPIN-10(11H)-YL]CARBONYL}-1,1′-BIPHENYL-2-CARBOXYLIC ACID]"
–,14.5,221 to 224 °C,CNC(=O)c1ccccc1-c1ccc(C(=O)N2Cc3ccc(C(=O)NCc4cccnc4)n3Cc3ccccc32)cc1 [Example 69]
–,2,161 to 165 °C (dec.),O=C(NCc1cccnc1)c1ccc2n1Cc1ccccc1N(Cc1ccc(-c3ccccc3)cc1)C2 [Example 73]
–,18.1,101 °C,O=C(NCc1cccnc1)c1ccc2n1Cc1ccccc1N(C(=O)c1cccc(F)c1)C2 [Example 78]
–,18.4,192 °C,O=C(NCc1cccnc1)c1ccc2n1Cc1ccccc1N(C(=O)c1ccc(Cl)c(Cl)c1)C2 [Example 81]
–,12.2,110 to 112 °C,COc1ccc(C(=O)N2Cc3ccc(C(=O)NCc4cccnc4)n3Cc3ccccc32)cc1 [Example 89]
–,> 30,171 to 173 °C,O=C(NCc1cccnc1)c1ccc2n1Cc1ccccc1N(C(=O)c1ccc(F)cc1)C2 [Example 93]
–,> 30,171 °C,CC(C)(C)OC(=O)NCc1ccc(C(=O)N2Cc3ccc(C(=O)NCc4cccnc4)n3Cc3ccccc32)cc1 [Example 103]
–,7.65,119 to 124 °C,O=C(NCc1cccnc1)c1ccc2n1Cc1ccccc1N(C(=O)c1ccc(-c3ccncc3)cc1)C2 [Example 110]
–,5.48,178 to 179 °C,O=C(NCc1cccnc1)c1ccc2n1Cc1ccccc1N(C(=O)c1ccc(-c3nccs3)cc1)C2 [Example 111]
–,15.8,169 to 171 °C,O=C(NCc1cccnc1)c1ccc2n1Cc1ccccc1N(C(=O)COc1ccc(Cl)cc1)C2 [Example 138]
–,9.86,168 °C,Cc1cc(Cl)ccc1OCC(=O)N1Cc2ccc(C(=O)NCc3cccnc3)n2Cc2ccccc21 [Example 139]
–,18.5,83 °C,O=C(NCc1cccnc1)c1ccc2n1Cc1ccccc1N(C(=O)Cc1ccc(Cl)cc1)C2 [Example 142]
